Source: US20240041877A1, “DOSAGE REGIME AND METHOD FOR TREATING PULMONARY ARTERIAL HYPERTENSION” (Altavant Sciences GmbH, priority 2019, published 2024)

Assays:
[1] = test system: plasma 5-HIAA (a PD marker of 5-HT synthesis); assay: Part 2 (MAD) biomarker: plasma 5-HIAA change from Day 1 predose; type: in vivo, human; settings: for Plasma 5-HIAA: mean difference of % change from Day 1 between KAR5585 and placebo / Plasma 5-HIAA: mean difference of absolute change from Day 1 between KAR5585 and placebo: all doses pooled
Description: (§1) Biomarkers were to be evaluated in Part 2 by measuring concentrations of serotonin (5-hydroxytryptamine [5-HT]) in serum and 5-hydroxyindoleacetic acid (5-HIAA) in plasma and urine. As well, the relationship of biomarkers to PK parameters was to be evaluated.
(§2) The biomarker analysis was to be based on the Biomarker Population (all subjects with evaluable biomarker measurements at baseline [Day 1 predose] and at least one after dosing [Day 7 or Day 14]).
(§3) Biomarker data were to be collected only in Part 2. The following biomarkers were to be analyzed: • Serum 5-HT • Plasma 5-HIAA • Urine 5-HIAA/24 hours (as measured, adjusted, estimated, and per gram creatinine)
The a priori primary biomarker endpoint was to be the change in plasma 5-HIAA concentration on Day 14 from Day 1.
(§4) Summary statistics (mean, standard deviation [SD], median, minimum [Min], and maximum [Max]) were to be tabulated for each biomarker, by Cohort, with absolute and relative (%) changes from Day 1 predose.
(§5) The values were to be tabulated with P values testing whether the difference of changes was equal to 0.
(§6) The biomarker portion of the study was conducted in Part 2 MAD using the Biomarker Population. The biomarkers evaluated were serum 5-HT and plasma 5-HIAA, as well as urine 5-HIAA/24 hours (as measured, adjusted, estimated, and per gram creatinine). Urinary 5-HIAA was determined by a validated (21 C.F.R. 58, GLP-compliant) method using liquid chromatographic separation and tandem mass spectrometry detection.

[2] = test system: urine 5-HIAA (a PD marker of 5-HT synthesis); assay: Part 2 (MAD) biomarker: urine 5-HIAA/24 hours (measured, adjusted, estimated, per gram creatinine); type: in vivo, human; settings: for Measured urine 5-HIAA: mean difference of % change from Day 1 between KAR5585 and placebo / Measured urine 5-HIAA: mean difference of absolute change from Day 1 between KAR5585 and placebo: no creatinine adjustment
Description: as §1, §2, §3, §4, §5, §6
Urine 5 HIAA/24 hour was analyzed in 4 different manners: as measured in the 24-hour collection and (in order to correct for any collection errors) adjusted for creatinine excretion, estimated by the expected creatinine excretion for the subject (as defined in and expressed per gram creatinine. Results were similar for each of the 4 manners and are presented in this report for measured urine. Tables and figures for adjusted, estimated, and per-gram creatinine results are presented in Section 14.

clinical = settings: human
Description: Food effect was to be evaluated in Part 1, Period 2.
Pharmacokinetic data were to be summarized descriptively.

[3] = KAR5585 400 mg BID, fed, listed as KAR5575

## CCOC(=O)[C@@H]1CC2(CCN(c3cc(O[C@H](c4ccc(Cl)cc4-c4ccccc4)C(F)(F)F)nc(N)n3)CC2)CN1 [KAR5585, (S)-ethyl 8-(2-amino-6-((R)-1-(5-chloro-[1,1′-biphenyl]-2-yl)-2,2,2-trifluoroethoxy)pyrimidin-4-yl)-2,8-diazaspiro[4.5]decane-3-carboxylate]
[1]; KAR5585 100 mg BID, fed
  mean reduction from Day 1 to Day 14 in plasma 5-HIAA: −32.58%
[1]; KAR5585 400 mg BID, fed
  mean percent change in plasma 5-HIAA from Day 1 to Day 7: −56.67%
[1]; [3]
  mean percent change in plasma 5-HIAA concentration from Day 1 to Day 14: −53.33%
[1]; predose Day 7
  Plasma 5-HIAA: mean difference of % change from Day 1 between KAR5585 and placebo: −22.33%
  Plasma 5-HIAA: mean difference of absolute change from Day 1 between KAR5585 and placebo: -3.61 ng/mL
[1]; predose Day 14
  Plasma 5-HIAA: mean difference of % change from Day 1 between KAR5585 and placebo: −57.11%
  Plasma 5-HIAA: mean difference of absolute change from Day 1 between KAR5585 and placebo: -6.69 ng/mL
[1]; each dose group and all doses combined
  mean difference vs placebo of absolute and percent changes from Day 1 to Day 14 in plasma 5-HIAA, significance: statistically significant in favor of KAR5585 compared to placebo in each dose group and for all doses combined at Day 14
[2]; 100 mg fasting, Day 7
  Measured urine 5-HIAA: mean difference of % change from Day 1 between KAR5585 and placebo: −31.97%
  Measured urine 5-HIAA: mean difference of absolute change from Day 1 between KAR5585 and placebo: −0.92 mg/24 hours
[2]; 100 mg fasting, Day 14
  Measured urine 5-HIAA: mean difference of % change from Day 1 between KAR5585 and placebo: −17.65%
  Measured urine 5-HIAA: mean difference of absolute change from Day 1 between KAR5585 and placebo: −0.91 mg/24 hours
[2]; 100 mg fed, Day 7
  Measured urine 5-HIAA: mean difference of % change from Day 1 between KAR5585 and placebo: −50.34%
  Measured urine 5-HIAA: mean difference of absolute change from Day 1 between KAR5585 and placebo: −2.09 mg/24 hours
[2]; 100 mg fed, Day 14
  Measured urine 5-HIAA: mean difference of % change from Day 1 between KAR5585 and placebo: −36.03%
  Measured urine 5-HIAA: mean difference of absolute change from Day 1 between KAR5585 and placebo: −1.65 mg/24 hours
[2]; 200 mg fed, Day 7
  Measured urine 5-HIAA: mean difference of % change from Day 1 between KAR5585 and placebo: −26.95%
  Measured urine 5-HIAA: mean difference of absolute change from Day 1 between KAR5585 and placebo: −0.92 mg/24 hours
[2]; 200 mg fed, Day 14
  Measured urine 5-HIAA: mean difference of % change from Day 1 between KAR5585 and placebo: −37.11%
  Measured urine 5-HIAA: mean difference of absolute change from Day 1 between KAR5585 and placebo: −1.58 mg/24 hours
[2]; 400 mg fed, Day 7
  Measured urine 5-HIAA: mean difference of % change from Day 1 between KAR5585 and placebo: −49.41%
  Measured urine 5-HIAA: mean difference of absolute change from Day 1 between KAR5585 and placebo: −1.68 mg/24 hours
[2]; 400 mg fed, Day 14
  Measured urine 5-HIAA: mean difference of % change from Day 1 between KAR5585 and placebo: −54.82%
  Measured urine 5-HIAA: mean difference of absolute change from Day 1 between KAR5585 and placebo: −2.04 mg/24 hours
[2]; Days 7 and 14
  absolute and percent changes from Day 1 in creatinine-normalized urine 5-HIAA vs placebo, significance: statistically significant in favor of KAR5585 versus placebo in all dose groups
[2]; KAR5585 400 mg BID, fed
  mean percent change in measured urine 5-HIAA from Day 1 to Day 7: −39.97%
[2]; [3]
  mean percent change in measured urine 5-HIAA from Day 1 to Day 14: −50.85%
[2]; all doses pooled, Day 7
  Measured urine 5-HIAA: mean difference of % change from Day 1 between KAR5585 and placebo: −40.03%
  Measured urine 5-HIAA: mean difference of absolute change from Day 1 between KAR5585 and placebo: −1.42 mg/24 hours
[2]; all doses pooled, Day 14
  Measured urine 5-HIAA: mean difference of % change from Day 1 between KAR5585 and placebo: −36.39%
  Measured urine 5-HIAA: mean difference of absolute change from Day 1 between KAR5585 and placebo: −1.54 mg/24 hours
clinical; in vivo, 400 mg
  half-life: 3.14 h
clinical; in vivo, 400 mg/dose
  Cmax: 110 ng/mL
clinical; plasma, oral, 100 mg
  Cmax at 1 day: 16.7 ng/mL
  Cmax at 14 day: 21.3 ng/mL
clinical; plasma, oral, 100 mg/dose
  AUC(0-inf): 54.1 ng·h/mL
  AUC(0-t): 50.8 ng·h/mL
  Cmax: 15.8 ng/mL
  Tmax: 1 h
  Vd/F: 4620 L
  half-life: 1.73 h
clinical; plasma, oral, 400 mg
  AUC(0-inf): 305 ng·h/mL
  Tmax: 2 h
clinical; plasma, oral, 400 mg/dose
  AUC(0-inf): 482 ng·h/mL
  Cmax: 89 ng/mL
  concentration at 12 h: 11.4 ng/mL
  half-life: 6.45 h
